Reference: patent publication US8183243B2, “Melanocortin receptor agonists” (LG Life Sciences Ltd., priority 2008, dated 2012)

molecular target: T1, MC4R (Homo sapiens, UniProt P32245); assay: MCR agonistic activity (luciferase assay / cAMP accumulation assay) on MC4R; format: cell-based; conditions: HEK cell lines expressing MC4R; method A (CRE-luciferase) or B (cAMP accumulation), not said which; read-out: EC50 value, agonistic activity to MC4R (range per group of Examples)
T1 construct: expressed in transfected cells; host or cells: HEK (Human Embryonic Kidney) permanent expression cell line HEK MC4R-Luc, co-expressing CRE-luciferase
Description: Physiological activity of the compounds of the present invention was assessed by measuring agonistic activity as well as binding activity for melanocortin receptors (MCR) according to methods A and B explained as follows.
As one of the methods to measure MCR agonistic activity of the compound according to the present invention, the expression level of a marker gene (for example, luciferase) which increases proportionally according to the increase of cAMP content in the cell, was measured.
First, permanent expression HEK (Human Embryonic Kidney) cell lines (HEK MC1R-Luc, MC3R-Luc, MC4R-Luc or MC5R-Luc) expressing the MCR gene of each subtype together with luciferase gene (CRE-LUC) under the control of CRE (cAMP Response Element) were constructed. The above cell lines were incubated in an incubator with 6% CO2 atmosphere at 37° C. using selection medium, DMEM(Dulbecco's Modified Eagles Medium) containing 10% heat-inactivated fetal bovine serum (Gibco/BRL), 100 unit/ml, penicillin (Gibco/BRL), 100 unit/ml streptomycin (Gibco/BRL), and 200 μg/ml geneticin (G418) (Gibco/BRL). When the cell covered 70% of total surface of the culture dish with 100 mm diameter, the culture dish was rinsed one time with 10 ml Phosphate Buffered Saline(PBS) free of Ca^++ and Mg^++, and then 3 ml PBS solution containing 0.05% trypsin and 0.53 mM EDTA was added thereto. After the trypsin/EDTA solution was removed, the cell lines were incubated in an thermostatic incubator for 1 minute at 37° C., and resuspended in 10 ml selection medium and centrifuged for 5 minutes at 1500 rpm. The supernatant was discarded and the settled cells were resuspended in 5 ml selection medium free of Phenol Red. The resulting cell-suspension was plated onto each well of 96-well culture plates for Luminometer(Costar) with a concentration of 5×10^4 cell in 100 μl culture medium for each well and incubated in the incubator with 6% CO2 atmosphere at 37° C. for 18 hours. With MCR agonists (Example compounds) diluted stepwise using the above culture medium, the cells were treated under the condition of the final DMSO concentration not exceeding 1%, and incubated for 5 hours in the atmosphere of 6% CO2 at 37° C. Then, 50 μl Bright-Glo (Promega) was added to each well. After allowing the treated cells to be at room temperature for 15 minutes, luminescence was measured for each well by using luminometer (Victor). The level of luminescence induced by the stepwise-diluted agonist was converted to relative % value to those by the treatment of 10 nM NDP-MSH. The EC50 indicates the concentration of each agonist for inducing 50% of maximal luminescence by each agonist and this value was measured by a statistical software (Prizm).
B. cAMP Accumulation Assay
As another method to measure MCR agonistic activity of the compound according to the present invention, an increase of cAMP amount in the cell was measured.
First, permanent expression HEK (Human Embryonic Kidney) cell lines (HEK MC1R-Luc, MC3R-Luc, MC4R-Luc or MCSR-Luc) expressing the MCR gene of each subtype were plated onto each well of 24-well culture plates for Luminometer(Costar) with a concentration of 2×10^5 cell in 1 ml culture medium for each well, and then incubated in an incubator with 6% CO2 atmosphere at 37° C. for 24 hours. The medium was removed from each well followed by rinsing with 0.5 ml cold DMEM one time. With MCR agonists (Example compounds) diluted stepwise using 200 μl DMEM including 500 μM IBMX (isobutylmethylxanthine), the cells were treated under the condition of the final DMSO concentration not exceeding 1%, and incubated for 30 minutes in the atmosphere of 6% CO2 at 37° C. Then, the cAMP amount in each cell was measured using Amersham cAMP assay Kit (TRK432).
More specifically, 14.4 μl of 6M PCA (60%) was added to each well, and allowed to be in ice for 10 minutes, and 200 μl sample was taken from each well and transferred to microcentrifuge tube. […]

T1 sequence (P32245 whole entry, species assumed): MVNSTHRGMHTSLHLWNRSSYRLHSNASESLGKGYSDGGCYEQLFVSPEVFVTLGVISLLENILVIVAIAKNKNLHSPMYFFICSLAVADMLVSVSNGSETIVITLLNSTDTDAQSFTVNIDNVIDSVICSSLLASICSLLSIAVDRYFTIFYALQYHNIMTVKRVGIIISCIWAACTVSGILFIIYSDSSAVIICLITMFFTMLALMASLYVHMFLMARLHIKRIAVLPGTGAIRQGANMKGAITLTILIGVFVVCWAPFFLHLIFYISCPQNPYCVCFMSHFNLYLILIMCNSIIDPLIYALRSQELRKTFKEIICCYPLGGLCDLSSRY

`CN1CCN(C(=O)[C@@H]2C[C@H](N(C(=O)C(C)(C)CO)C3CCC(C)(C)CC3)CN2C(=O)[C@@H]2CN(C(C)(C)C)C[C@H]2c2ccc(F)cc2F)CC1` [Example 15, N-{(3S,5S)-1-{[(3S,4R)-1-tert-butyl-4-(2,4-difluorophenyl)pyrrolidin-3-yl]carbonyl}-5-[(4-methylpiperazin-1-yl)carbonyl]pyrrolidin-3-yl}-N-(4,4-dimethylcyclohexyl)-3-hydroxy-2,2-dimethylpropanamide] and `CN1CCN(C(=O)[C@@H]2C[C@H](N(C(=O)C(C)(C)CO)[C@H]3CC[C@@H](C)CC3)CN2C(=O)[C@@H]2CN(C(C)(C)C)C[C@H]2c2ccc(F)cc2F)CC1` [Example 20, N-{(3S,5S)-1-{[(3S,4R)-1-tert-butyl-4-(2,4-difluorophenyl)pyrrolidin-3-yl]carbonyl}-5-[(4-methylpiperazin-1-yl)carbonyl]pyrrolidin-3-yl}-3-hydroxy-2,2-dimethyl-N-(cis-4-methylcyclohexyl)propanamide] fall in the same range of EC50: 0.1 to 10 nM for the first, 0.1 to 10 nM for the second.

`CN1CCN(C(=O)[C@@H]2C[C@H](N(C(=O)[C@@H]3CCCO3)[C@H]3CC[C@@H](C)CC3)CN2C(=O)[C@@H]2CN(C(C)(C)C)C[C@H]2c2ccc(Cl)cc2)CC1` [Example 16, (2S)-N-{(3S,5S)-1-{[(3S,4R)-1-tert-butyl-4-(4-chlorophenyl)pyrrolidin-3-yl]carbonyl}-5-[(4-methylpiperazin-1-yl)carbonyl]pyrrolidin-3-yl}-N-(cis-4-methylcyclohexyl)tetrahydrofuran-2-carboxamide] and `CCN1CCN(C(=O)[C@@H]2C[C@H](N(C(=O)[C@@H]3CCCO3)[C@H]3CC[C@@H](C)CC3)CN2C(=O)[C@@H]2CN(C(C)(C)C)C[C@H]2c2ccc(Cl)cc2)CC1` [Example 22, (2S)-N-{(3S,5S)-1-{[(3S,4R)-1-tert-butyl-4-(4-chlorophenyl)pyrrolidin-3-yl]carbonyl}-5-[(4-ethylpiperazin-1-yl)carbonyl]pyrrolidin-3-yl}-N-(cis-4-methylcyclohexyl)tetrahydrofuran-2-carboxamide] fall in the same range of EC50: 0.1 to 10 nM for the first, 0.1 to 10 nM for the second.

`CN1CCN(C(=O)[C@@H]2C[C@H](N(C(=O)C(C)(C)C)[C@H]3CC[C@@H](C)CC3)CN2C(=O)[C@@H]2CN(C(C)(C)C)C[C@H]2c2ccc(Cl)cc2)CC1` [Example 17, N-{(3S,5S)-1-{[(3S,4R)-1-tert-butyl-4-(4-chlorophenyl)pyrrolidin-3-yl]carbonyl}5-[(4-methylpiperazin-1-yl)carbonyl]pyrrolidin-3-yl}-2,2-dimethyl-N-(cis-4-methylcyclohexyl)propanamide] and `CN1CCN(C(=O)[C@@H]2C[C@H](N(C(=O)C(C)(C)CO)[C@H]3CC[C@@H](C)CC3)CN2C(=O)[C@@H]2CN(C(C)(C)C)C[C@H]2c2ccc(Cl)cc2)CC1` [Example 19, N-{(3S,5S)-1-{[(3S,4R)-1-tert-butyl-4-(4-chlorophenyl)pyrrolidin-3-yl]carbonyl}-5-[(4-methylpiperazin-1-yl)carbonyl]pyrrolidin-3-yl}-3-hydroxy-2,2-dimethyl-N-(cis-4-methylcyclohexyl)propanamide] fall in the same range of EC50: 0.1 to 10 nM for the first, 0.1 to 10 nM for the second.

`CN1CCN(C(=O)[C@@H]2C[C@H](N(C(=O)C(C)(C)C)[C@H]3CC[C@@H](C)CC3)CN2C(=O)[C@@H]2CN(C(C)(C)C)C[C@H]2c2ccc(F)cc2F)CC1` [Example 18, N-{(3S,5S)-1-{[(3S,4R)-1-tert-butyl-4-(2,4-difluorophenyl)pyrrolidin-3-yl]carbonyl}-5-[(4-methylpiperazin-1-yl)carbonyl]pyrrolidin-3-yl}-2,2-dimethyl-N-(cis-4-methylcyclohexyl)propanamide] and `CN1CCN(C(=O)[C@@H]2C[C@H](N(C(=O)C(C)(C)C)C3CCC(F)(F)CC3)CN2C(=O)[C@@H]2CN(C(C)(C)C)C[C@H]2c2ccc(F)cc2F)CC1` [Example 30, N-{(3S,5S)-1-{[(3S,4R)-1-tert-butyl-4-(2,4-difluorophenyl)pyrrolidin-3-yl]carbonyl}-5-[(4-methylpiperazin-1-yl)carbonyl]pyrrolidin-3-yl}-N-(4,4-difluorocyclohexyl)-2,2-dimethylpropanamide] fall in the same range of EC50: 0.1 to 10 nM for the first, 0.1 to 10 nM for the second.

`CN1CCN(C(=O)[C@@H]2C[C@H](N(C(=O)[C@@H]3CCCO3)[C@H]3CC[C@@H](C)CC3)CN2C(=O)[C@@H]2CN(C(C)(C)C)C[C@H]2c2ccc(F)cc2F)CC1` [Example 21, (2S)-N-{(3S,5S)-1-{[(3S,4R)-1-tert-butyl-4-(2,4-difluorophenyl)pyrrolidin-3-yl]carbonyl}-5-[(4-methylpiperazin-1-yl)carbonyl]pyrrolidin-3-yl}-N-(cis-4-methylcyclohexyl)tetrahydrofuran-2-carboxamide] and `CN1CCN(C(=O)[C@@H]2C[C@H](N(C(=O)c3ccoc3)[C@H]3CC[C@@H](C)CC3)CN2C(=O)[C@@H]2CN(C(C)(C)C)C[C@H]2c2ccc(F)cc2F)CC1` [Example 24, N-{(3S,5S)-1-{[(3S,4R)-1-tert-butyl-4-(2,4-difluorophenyl)pyrrolidin-3-yl]carbonyl}-5-[(4-methylpiperazin-1-yl)carbonyl]pyrrolidin-3-yl}-N-(cis-4-methylcyclohexyl)-3-furamide] fall in the same range of EC50: 0.1 to 10 nM for the first, 0.1 to 10 nM for the second.

First: CC(C)N1CCN(C(=O)[C@@H]2C[C@H](N(C(=O)[C@@H]3CCCO3)[C@H]3CC[C@@H](C)CC3)CN2C(=O)[C@@H]2CN(C(C)(C)C)C[C@H]2c2ccc(Cl)cc2)CC1 [Example 23, (2S)-N-{(3S,5S)-1-{[(3S,4R)-1-tert-butyl-4-(4-chlorophenyl)pyrrolidin-3-yl]carbonyl}-5-[(4-isopropylpiperazin-1-yl)carbonyl]pyrrolidin-3-yl}-N-(cis-4-methylcyclohexyl)tetrahydrofuran-2-carboxamide]
Second: CC(=O)N(C1CCC(F)(F)CC1)[C@H]1C[C@@H](C(=O)N2CCN(C(C)C)CC2)N(C(=O)[C@@H]2CN(C(C)(C)C)C[C@H]2c2ccc(Cl)cc2)C1 [Example 29, N-{(3S,5S)-1-{[(3S,4R)-1-tert-butyl-4-(4-chlorophenyl)pyrrolidin-3-yl]carbonyl}5-[(4-isopropylpiperazin-1-yl)carbonyl]pyrrolidin-3-yl}-N-(4,4-difluorocyclohexyl)acetamide]
The EC50 of the first is lower: 0.1 to 10 nM for the first, 100 to 1000 nM for the second. The first is the more potent here.

First: CN1CCN(C(=O)[C@@H]2C[C@H](N(C(=O)C(C)(C)C)C3CCC(F)(F)CC3)CN2C(=O)[C@@H]2CN(C(C)(C)C)C[C@H]2c2ccc(Cl)cc2)CC1 [Example 26, N-{(3S,5S)-1-{[(3S,4R)-1-tert-butyl-4-(4-chlorophenyl)pyrrolidine-3-yl]carbonyl}-5-[(4-methylpiperazin-1-yl)carbonyl]pyrrolidin-3-yl}-N-(4,4-difluorocyclohexyl)-2,2-dimethylpropanamide]
Second: CCN1CCN(C(=O)[C@@H]2C[C@H](N(C(C)=O)C3CCC(F)(F)CC3)CN2C(=O)[C@@H]2CN(C(C)(C)C)C[C@H]2c2ccc(Cl)cc2)CC1 [Example 28, N-{(3S,5S)-1-{[(3S,4R)-1-tert-butyl-4-(4-chlorophenyl)pyrrolidin-3-yl]carbonyl}5-[(4-ethylpiperazin-1-yl)carbonyl]pyrrolidin-3-yl}-N-(4,4-difluorocyclohexyl)acetamide]
The EC50 of the first is lower: 0.1 to 10 nM for the first, 100 to 1000 nM for the second.

same assay, conditions: specific activities of representative compounds; HEK cell lines expressing MC4R; method A or B, not said which; read-out: EC50

Point of comparison: `CN1CCN(C(=O)[C@@H]2C[C@H](N(C(=O)[C@@H]3CCCO3)[C@H]3CC[C@@H](C)CC3)CN2C(=O)[C@@H]2CN(C(C)(C)C)C[C@H]2c2ccc(Cl)cc2)CC1` [Example 16, (2S)-N-{(3S,5S)-1-{[(3S,4R)-1-tert-butyl-4-(4-chlorophenyl)pyrrolidin-3-yl]carbonyl}-5-[(4-methylpiperazin-1-yl)carbonyl]pyrrolidin-3-yl}-N-(cis-4-methylcyclohexyl)tetrahydrofuran-2-carboxamide], EC50 0.4 nM. Against it:
- CN1CCN(C(=O)[C@@H]2C[C@H](N(C(=O)C(C)(C)C)C3CCC(F)(F)CC3)CN2C(=O)[C@@H]2CN(C(C)(C)C)C[C@H]2c2ccc(Cl)cc2)CC1 [Example 26, N-{(3S,5S)-1-{[(3S,4R)-1-tert-butyl-4-(4-chlorophenyl)pyrrolidine-3-yl]carbonyl}-5-[(4-methylpiperazin-1-yl)carbonyl]pyrrolidin-3-yl}-N-(4,4-difluorocyclohexyl)-2,2-dimethylpropanamide] — 15-fold higher, 6 nM
